“And” between values parts separate entries of the source, which are not always exact repeats. Equal entries are not always repeated.
How the values were obtained:
[1] = tested on: HIV; conditions: human, in vivo; cited from earlier work
[2] = tested on: Friend Leukemia Virus; assay: FV-induced splenomegaly, PAC compounds in combination with AZT (Example 1(b)); type: in vivo, BALB/c mice; conditions: 5X AZT 20 micrograms per mouse
Experimental: The effects of compositions according to the present invention on the increase in spleen size (splenomegaly) of BALB/c mice (Jackson Labs, Bar Harbor, ME) was examined. In these experiments, the virus (10^6 focus forming units--FFU) was inoculated intravenously and 100 micrograms of the compounds indicated in Table II were administered to the mice intraperitoneally 24 hours later. Each compound was administered once to two mice. The animals were sacrificed ten days later and their spleens weighed.
As used in Table II (and subsequent Tables of this Example l(a) and (b), "average percent inhibition" is calculated as follows: [formula] wherein "ASWNC" designates "average spleen weight of negative control"; "ASWE" designates "average spleen weight of experimental (treated) subject"; and "ASWPC" designates "average spleen weight of positive control". Average spleen weight is the numerical average of spleen weights of each experimental group (in Table II each such group includes two members).
The compounds of the present invention (100 micrograms per mouse) were also tested in combination with AZT (20 micrograms per mouse, twice a day) using otherwise the same methods as in Example 1(a) above. As representatives, compound #9 above (3-bromophenanthro (3,4-C), phenanthrene) and compound #10 (diindeno (1, 2, 3-CD/1', 2', 3'-IM) Perylene) were chosen. […] The compounds were administered i.p. either once or five times (once per day) alone or together with AZT (20 micrograms of AZT per mouse twice a day for five days?). Thus, in experiments where AZT was administered five times, a total of […] of AZT was received by each mouse (with a total of 500 micrograms of the PAC compound).

Cc1cn([C@H]2C[C@H](N=[N+]=[N-])[C@@H](CO)O2)c(=O)[nH]c1=O [AZT, 3'-azido-3'-dideoxythymidine, reference compound]
clinical toxicity of AZT [1]: dose-dependent suppression of bone marrow, resulting in anemia and leukopenia | % Inhibition [2]: 39% | Average Spleen Weight [2]: 1.3895 | Spleen weight ([2]; single animal): 1.3744 and 1.4046

From patent US6150414A, “Compositions and methods for treating viral infections” (priority 1992, dated 2000)
